Data set [1] is classed as in vivo, nude mice. The following applies: mouse, in vivo. The text has this:
(§1) The total medication period was 14 days.

For data set [2], the system named is human testicular cancer 5637. In kind it is in vivo, nude mice.
Description: as §1

For data set [3], the system named is sarcoma HT-1080. Type of data set: in vivo, nude mice.
Description: as §1

Data set [4] concerns human prostate cancer DU-145. Type of data set: in vivo, nude mice.
Description: (§2) Taking a certain amount of vigorously growing tumor tissue, grinding the tumor tissue under sterile conditions and preparing cell suspension at the concentration of 1×10^7 cells/ml; then hypodermicaly inoculating 0.1 ml of the cell suspension into the right axillary region of nude mice. Keeping measuring the diameter of the transplanted tumor with a vernier caliper, and randomly dividing the mice into groups when the volume of the tumor reached 100-200 mm^3. […] Measuring the tumor diameter once every other day and recording the body weight of mice simultaneously. Intravenously injecting polypeptides to mice from test groups while administering equal quantity of physiological saline to mice from the negative control group. The total medication period was 14 days. Avastin was adopted to set up a positive control group; it was administered through the tail vein once every three days while all other drugs were administered through the tail vein once a day. Leaving mice for a one-week rest after 14 days' medication, then (21 days after medication) killing the mice, surgically dissecting the tumors and measuring the weight of tumors. The tumor volume (TV) was calculated in accordance with the following formula: TV=½×a×b^2
In data set [5] the test system is human ovarian cancer SK-OV-3. In kind it is in vivo, nude mice.
Description: as §2
Data set [6] relates to human thyroid cancer SW-579. Type of data set: in vivo, nude mice.
Description: as §2
In data set [7] the test system is human renal cancer A498. Type of data set: in vivo, nude mice.
Description: as §2
The subject of data set [8] is human cervical cancer HeLa. In kind it is in vivo, nude mice.
Description: as §2
Data set [9] concerns human colon cancer HT-29. In kind it is in vivo, nude mice.
Description: as §2
Data set [10] has as its system melanoma B16F10. Put plainly: transplanted melanoma B16F10 in C57BL/6 black mice. The conditions noted are these: 15 mg/kg/time once every other day, hypodermic, 14 days. As to the method: Hypodermically injecting polypeptides and other drugs into the left axillary region of mice from the experimental groups respectively while administering only equal quantity of physiological saline to the mice from the negative control group. The total medication period was 14 days, during which cyclophosphamide was administered once every other day, taxol once every three days, low-dose polypeptide twice a day and all other drugs once a day.

Data set [11] concerns human pancreatic cancer SW-1990. The data set is described as follows: heterotransplanted human pancreatic cancer SW-1990 in nude mice. Type of data set: in vivo.
Description: as §1

The test system of data set [12] is human gallbladder cancer GBC-SD. The data set is described as follows: heterotransplanted human gallbladder cancer GBC-SD in nude mice.
Description: (§3) Taking a certain amount of vigorously growing tumor tissue, grinding the tumor tissue under sterile conditions and preparing cell suspension at the concentration of 1×10^7 cells/ml; then hypodermicaly inoculating 0.1 ml of the cell suspension into the right axillary region of nude mice. Keeping measuring the diameter of the transplanted tumor with a vernier caliper, and randomly dividing the mice into groups when the volume of the tumor reached 100-200 mm^3. Observing the dynamic effect of integrin-blocking polypeptides on inhibiting the growth of the tumor by means of documenting the change of tumor diameters. Measuring the tumor diameter once every other day and recording the body weight of mice simultaneously. Intravenously injecting polypeptides to mice from test groups while administering equal quantity of physiological saline to mice from the negative control group. The total medication period was 14 days. Avastin was adopted to set up a positive control group; it was administered through the tail vein once every three days while all other drugs were administered through the tail vein once a day. Leaving mice for a one-week rest after 14 days' medication, then (21 days after medication) killing the mice, surgically dissecting the tumors and measuring the weight of tumors. The tumor volume (TV) was calculated in accordance with the following formula: TV=½×a×b^2
(§4) Avastin used in the positive control group was administered once every 2 days through tail vein injection, while drugs of all other groups were administered on daily basis through tail vein injection.
For data set [13], the system named is human laryngeal cancer Hep-2. The data set is described as follows: heterotransplanted human laryngeal cancer Hep-2 in nude mice. Type of data set: in vivo.
Description: as §1

The subject of data set [14] is human bladder cancer HT1376. The data set is described as follows: heterotransplanted human bladder cancer HT1376 in nude mice. In kind it is in vivo.
Description: as §1

The test system of data set [15] is human gallbladder cancer GBC-SD. The conditions noted are these: mouse, in vivo.
Description: as §3, §4
Data set [16] concerns human breast cancer MDA-MB-231. The following applies: mouse, in vivo.
Description: as §3
(§5) wherein a, b refer to the length and width of the tumor respectively.
(§6) The relative tumor volume (RTV) can be calculated in accordance with the results of measurement, using the formula: RTV=Vt/V0, wherein V0 refers to the initial tumor volume measured on the date starting medication (namely d0) while Vt the tumor volume obtained through every measurement. The anti-tumor activity was evaluated by relative proliferation rate T/C (%), which was calculated in accordance with the following formula:
(§7) wherein TRTV refers to the RTV of experimental groups; CRTV refers to the RTV of the negative control group.
Data set [17] concerns human breast cancer MDA-MB-231. The data set is described as follows: heterotransplanted human breast cancer MDA-MB-231 in nude mice. The conditions noted are these: 10 mg/kg/time, tail vein once every three days.
Description: as §3, §5, §6, §7
Data set [18] deals with human esophageal cancer Ec109. In kind it is in vivo, nude mice.
Description: as §1

Where [19] appears, read: 10 mg/kg/time, once every 3 days, tail vein injection.
[20] abbreviates: 5-FU 10 mg/kg/time, once every 3 days, tail vein injection.
The mark [21] stands for this setting: positive control, tail vein once every 3 days.
Where [22] appears, read: 5 mg/kg/time (as printed in Table 29), once every 3 days, tail vein injection.
[23] abbreviates: 10 mg/kg/time, tail vein once every 3 days.
Where [24] appears, read: cisplatin 10 mg/kg/time, once every 3 days, tail vein injection.
The mark [25] stands for this setting: 10 mg/kg/time, once every 2 days, tail vein injection.
Where [26] appears, read: avastin 10 mg/kg/time, once every 3 days, tail vein injection.

Where “and” joins values, the source holds several entries; their conditions need not be identical. Equal values may be shown once. Read-outs that look alike come from different tables or passages of the source.

On to `O=c1[nH]cc(F)c(=O)[nH]1` [5-FU, 5-fluorouracil, reference compound], for which the “body weight of animals, in words” value in [1] is recorded as “greatly reduced the body weight”; in [3] (mouse, in vivo), “greatly reduced the body weight”. Also, the results for the tumor inhibition rate in data set [2] (setting [19]) and in data set [3] (setting [20]) were 77.80% and 78.10%, respectively. The tumor weight in data set [2] (setting [19]) was 0.28 ± 0.06 g; in data set [3] (setting [20]), 0.30 ± 0.07 g. The “toxic and side effects, in words” value in data set [2] (mouse, in vivo) is “more apparent toxic and side effects”; in data set [3] (mouse, in vivo), “more apparent toxic and side effects”. For the same molecule, the “inhibition rate on tumor” value is 77.80% and 73.84% in data set [2] (tail vein once every 3 days); 78.10% in data set [3] (setting [21]).

As for `N.N.[Cl][Pt][Cl]` [cisplatin, reference compound], the tumor inhibition rate in data set [4] (setting [22]) is 73.84%; in data set [4] (setting [19]), 73.84%; in data set [4] (setting [23]), 73.84%; in [5] (setting [24]) it was 78.36%; in [6] (setting [19]), 74.09%; in data set [7] (setting [19]), 79.83%. In addition, the tumor inhibition rate in data set [8] (setting [23]) is given as 73.13%; in [9] (setting [19]) it was 79.17%. The tumor weight in [4] (setting [22]) was 0.37 ± 0.10 g; in [4] (setting [19]) it was 0.37 ± 0.10 g; in data set [4] (setting [23]), 0.37 ± 0.10 g; in data set [5] (setting [24]) it was 0.29 ± 0.06 g; in data set [6] (setting [19]), 0.34 ± 0.07 g; in data set [7] (setting [19]), 0.25 ± 0.06 g. Further, the tumor weight in data set [8] (setting [23]) was determined as 0.38 ± 0.10 g; in data set [9] (setting [19]) it was 0.30 ± 0.05 g. Besides, the “body weight of animals, in words” value is reported as “greatly reduced the body weight” in [4] (mouse, in vivo); “greatly reduced the body weight” in data set [5] (mouse, in vivo); “greatly reduced the body weight” in data set [6] (mouse, in vivo); “greatly reduced the body weight” in data set [7] (mouse, in vivo); “greatly reduced the body weight” in data set [8] (mouse, in vivo); “greatly reduced the body weight” in data set [9] (mouse, in vivo). The “inhibition rate on tumor” value is 78.36% in data set [5] (setting [21]), 74.09% in data set [6] (setting [21]), 79.83% in data set [7] (setting [21]) and 79.17% in data set [9] (setting [21]).

In [10], `O=P1(N(CCCl)CCCl)NCCCO1` (stereo not shown) [cyclophosphamide] registered a final weight of 17.3 ± 1.5 g, a tumor inhibition rate of 64.95% and a tumor weight of 1.40 ± 0.06 g.

For “avastin: Avastin was adopted to set up a positive control group [reference compound]”, the tumor inhibition rate in data set [11] (setting [19]) came to 79.07%; in [12] (setting [25]), 78.85%; in data set [13] (setting [26]) it was 76.79%; in [14] (setting [19]), 79.60%; in [18] (setting [19]) it was 69.00%. The tumor weight was 0.27 ± 0.07 g in [11] (setting [19]); 0.25 ± 0.06 g in data set [12] (setting [25]); 0.26 ± 0.06 g in data set [13] (setting [26]); 0.24 ± 0.06 g in data set [14] (setting [19]); 0.26 ± 0.08 g in data set [17]; 0.47 ± 0.10 g in [18] (setting [19]). The “body weight of animals, in words” value is “no significant change” in data set [11] (mouse, in vivo); “no significant change” in data set [13] (mouse, in vivo); “no significant change” in data set [14] (mouse, in vivo); “no significant change” in data set [15]; “no obvious change” in [16]; “no significant change” in data set [18] (mouse, in vivo). Besides, the “inhibition rate on tumor” value turned out to be 79.07% in [11] (setting [21]); 78.85% in [12] (positive control, tail vein once every 2 days); 76.79% in data set [13] (setting [21]); 79.60% in [14] (setting [21]); 69.00% in data set [18] (setting [21]).

The values are drawn from patent publication US9458203B2, “Integrin-blocking polypeptides and uses thereof” (priority 2011, dated 2016).
